The text below walks through data of paper PMC12663298, “Sibiriline, a novel dual inhibitor of necroptosis and ferroptosis, prevents RIPK1 kinase activity and (phospho)lipid peroxidation as a potential therapeutic strategy” (Cell Death Discovery, 2025).

Common to all, as to assay type: biochemical
One assay has as its target KIT (Homo sapiens, UniProt P10721). Kind of assay: enzymatic kinase assay (Eurofins) at KM,ATP.
Another assay has as its target JAK2 (Homo sapiens, UniProt O60674). Kind of assay: enzymatic kinase assay (Eurofins) at KM,ATP.
The target of another assay is T1, DRAK2 (Homo sapiens, UniProt O94768).
T1 construct: gene STK17B
T1 sequence (O94768 1-372): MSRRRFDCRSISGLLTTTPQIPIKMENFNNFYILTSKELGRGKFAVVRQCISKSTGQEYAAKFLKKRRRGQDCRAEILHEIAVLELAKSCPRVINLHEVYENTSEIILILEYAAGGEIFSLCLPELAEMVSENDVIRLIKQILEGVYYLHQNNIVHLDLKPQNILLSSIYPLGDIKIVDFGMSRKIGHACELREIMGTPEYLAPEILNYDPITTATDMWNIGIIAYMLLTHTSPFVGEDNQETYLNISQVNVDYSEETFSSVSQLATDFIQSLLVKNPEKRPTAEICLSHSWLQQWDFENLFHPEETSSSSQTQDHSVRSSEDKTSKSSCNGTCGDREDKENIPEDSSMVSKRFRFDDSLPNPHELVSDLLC
Kind of assay: enzymatic kinase assay (Eurofins) at KM,ATP.

Another assay addresses T2, AURKC (Homo sapiens, UniProt Q9UQB9).
T2 sequence (Q9UQB9 1-309): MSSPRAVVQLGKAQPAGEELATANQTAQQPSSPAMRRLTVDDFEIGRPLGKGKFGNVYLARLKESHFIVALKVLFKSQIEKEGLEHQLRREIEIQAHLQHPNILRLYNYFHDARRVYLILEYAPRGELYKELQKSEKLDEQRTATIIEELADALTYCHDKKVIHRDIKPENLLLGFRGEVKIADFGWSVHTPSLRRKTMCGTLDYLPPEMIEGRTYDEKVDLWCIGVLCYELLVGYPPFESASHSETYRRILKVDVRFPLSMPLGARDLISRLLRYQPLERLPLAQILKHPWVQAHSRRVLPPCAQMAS
Kind of assay: enzymatic kinase assay (Eurofins) at KM,ATP.

Another assay deals with T3, PDGFR-β (Homo sapiens, UniProt P09619).
T3 construct: gene PDGFRB
Kind of assay: enzymatic kinase assay (Eurofins) at KM,ATP.

The target in the next assay is ABL1 (Homo sapiens, UniProt P00519). Kind of assay: ADP-Glo kinase assay at KM,ATP. A general note: ADP-Glo turns the ADP formed in a reaction into a luminescent signal.
Sequence of ABL1 (P00519 whole entry): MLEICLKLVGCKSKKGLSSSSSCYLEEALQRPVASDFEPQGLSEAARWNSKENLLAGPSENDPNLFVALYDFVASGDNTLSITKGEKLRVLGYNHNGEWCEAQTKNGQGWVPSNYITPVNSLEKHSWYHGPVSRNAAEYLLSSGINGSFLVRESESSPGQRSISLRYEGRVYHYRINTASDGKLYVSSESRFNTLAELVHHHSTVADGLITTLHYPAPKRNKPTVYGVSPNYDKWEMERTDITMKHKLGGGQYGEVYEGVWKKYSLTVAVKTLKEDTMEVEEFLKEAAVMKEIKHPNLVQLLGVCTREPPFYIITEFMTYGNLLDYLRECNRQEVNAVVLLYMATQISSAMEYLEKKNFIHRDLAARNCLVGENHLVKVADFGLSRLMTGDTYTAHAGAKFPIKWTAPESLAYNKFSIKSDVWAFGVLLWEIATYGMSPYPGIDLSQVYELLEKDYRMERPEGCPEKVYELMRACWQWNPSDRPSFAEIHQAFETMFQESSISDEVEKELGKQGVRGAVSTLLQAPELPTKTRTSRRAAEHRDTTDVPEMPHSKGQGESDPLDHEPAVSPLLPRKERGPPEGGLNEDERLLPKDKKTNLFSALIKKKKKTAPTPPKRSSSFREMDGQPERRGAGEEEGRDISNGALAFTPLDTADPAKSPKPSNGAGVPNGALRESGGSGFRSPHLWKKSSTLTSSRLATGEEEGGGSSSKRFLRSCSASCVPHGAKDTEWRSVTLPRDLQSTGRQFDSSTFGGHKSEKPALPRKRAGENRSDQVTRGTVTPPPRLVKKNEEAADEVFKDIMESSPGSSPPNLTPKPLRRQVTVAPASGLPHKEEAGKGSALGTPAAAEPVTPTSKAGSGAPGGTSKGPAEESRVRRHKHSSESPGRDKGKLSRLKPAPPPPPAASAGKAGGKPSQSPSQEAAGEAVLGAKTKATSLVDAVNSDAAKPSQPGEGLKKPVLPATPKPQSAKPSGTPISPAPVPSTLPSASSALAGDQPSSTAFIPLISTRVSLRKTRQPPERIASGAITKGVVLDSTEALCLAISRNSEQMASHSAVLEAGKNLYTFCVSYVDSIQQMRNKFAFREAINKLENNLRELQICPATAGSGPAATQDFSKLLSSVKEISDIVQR

Sequence of JAK2 (O60674 whole entry): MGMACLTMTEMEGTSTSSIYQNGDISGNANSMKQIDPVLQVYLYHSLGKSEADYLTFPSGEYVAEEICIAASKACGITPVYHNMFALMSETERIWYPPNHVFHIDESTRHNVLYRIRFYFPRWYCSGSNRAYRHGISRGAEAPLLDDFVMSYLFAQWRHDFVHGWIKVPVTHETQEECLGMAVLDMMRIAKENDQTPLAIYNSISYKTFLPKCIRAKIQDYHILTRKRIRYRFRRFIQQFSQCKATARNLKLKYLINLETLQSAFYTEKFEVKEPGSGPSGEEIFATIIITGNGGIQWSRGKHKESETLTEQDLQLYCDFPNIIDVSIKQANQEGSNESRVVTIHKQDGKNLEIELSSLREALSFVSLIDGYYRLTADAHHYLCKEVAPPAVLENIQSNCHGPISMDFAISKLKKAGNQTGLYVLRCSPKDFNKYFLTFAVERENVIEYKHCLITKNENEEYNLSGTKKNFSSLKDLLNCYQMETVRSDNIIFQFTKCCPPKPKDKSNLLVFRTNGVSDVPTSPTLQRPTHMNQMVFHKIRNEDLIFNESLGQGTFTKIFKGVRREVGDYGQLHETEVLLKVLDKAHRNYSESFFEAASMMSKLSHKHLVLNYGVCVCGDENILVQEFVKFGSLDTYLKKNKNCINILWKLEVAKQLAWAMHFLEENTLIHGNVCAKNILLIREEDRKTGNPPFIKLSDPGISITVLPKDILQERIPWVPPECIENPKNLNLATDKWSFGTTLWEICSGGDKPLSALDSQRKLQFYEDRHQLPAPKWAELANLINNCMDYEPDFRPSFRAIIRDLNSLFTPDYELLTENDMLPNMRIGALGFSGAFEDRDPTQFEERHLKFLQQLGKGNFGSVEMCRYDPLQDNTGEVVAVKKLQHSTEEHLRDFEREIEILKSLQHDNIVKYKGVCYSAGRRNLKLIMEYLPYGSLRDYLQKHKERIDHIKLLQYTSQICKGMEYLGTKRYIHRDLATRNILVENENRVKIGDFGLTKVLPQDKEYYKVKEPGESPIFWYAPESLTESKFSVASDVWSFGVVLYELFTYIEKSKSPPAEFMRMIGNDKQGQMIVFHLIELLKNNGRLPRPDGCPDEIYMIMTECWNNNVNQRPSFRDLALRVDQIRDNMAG
Sequence of KIT (P10721 26-976): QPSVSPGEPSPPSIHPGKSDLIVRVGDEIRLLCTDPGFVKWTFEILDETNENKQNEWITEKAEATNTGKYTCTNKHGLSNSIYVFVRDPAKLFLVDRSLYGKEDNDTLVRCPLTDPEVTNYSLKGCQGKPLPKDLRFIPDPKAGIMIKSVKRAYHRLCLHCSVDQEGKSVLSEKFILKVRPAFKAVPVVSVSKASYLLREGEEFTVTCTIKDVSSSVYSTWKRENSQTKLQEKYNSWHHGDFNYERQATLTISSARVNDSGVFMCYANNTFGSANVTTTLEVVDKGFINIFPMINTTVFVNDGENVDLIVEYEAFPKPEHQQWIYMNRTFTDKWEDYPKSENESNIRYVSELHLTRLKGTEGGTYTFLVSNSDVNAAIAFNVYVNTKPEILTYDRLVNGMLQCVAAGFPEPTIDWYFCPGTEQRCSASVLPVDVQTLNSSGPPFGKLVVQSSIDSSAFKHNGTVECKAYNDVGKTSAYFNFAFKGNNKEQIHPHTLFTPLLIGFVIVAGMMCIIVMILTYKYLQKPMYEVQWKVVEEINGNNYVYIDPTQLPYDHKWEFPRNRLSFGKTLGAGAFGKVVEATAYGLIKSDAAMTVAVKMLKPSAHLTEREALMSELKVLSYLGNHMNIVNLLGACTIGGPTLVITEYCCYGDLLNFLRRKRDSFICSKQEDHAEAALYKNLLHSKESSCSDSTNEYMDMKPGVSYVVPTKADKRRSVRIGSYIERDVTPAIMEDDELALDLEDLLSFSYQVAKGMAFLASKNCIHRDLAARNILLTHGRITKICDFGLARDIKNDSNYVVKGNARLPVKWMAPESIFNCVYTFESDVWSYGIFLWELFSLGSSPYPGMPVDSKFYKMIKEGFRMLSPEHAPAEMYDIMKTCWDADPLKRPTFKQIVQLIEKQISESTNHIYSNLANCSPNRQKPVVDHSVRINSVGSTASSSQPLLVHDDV
T3 sequence (P09619 33-1106): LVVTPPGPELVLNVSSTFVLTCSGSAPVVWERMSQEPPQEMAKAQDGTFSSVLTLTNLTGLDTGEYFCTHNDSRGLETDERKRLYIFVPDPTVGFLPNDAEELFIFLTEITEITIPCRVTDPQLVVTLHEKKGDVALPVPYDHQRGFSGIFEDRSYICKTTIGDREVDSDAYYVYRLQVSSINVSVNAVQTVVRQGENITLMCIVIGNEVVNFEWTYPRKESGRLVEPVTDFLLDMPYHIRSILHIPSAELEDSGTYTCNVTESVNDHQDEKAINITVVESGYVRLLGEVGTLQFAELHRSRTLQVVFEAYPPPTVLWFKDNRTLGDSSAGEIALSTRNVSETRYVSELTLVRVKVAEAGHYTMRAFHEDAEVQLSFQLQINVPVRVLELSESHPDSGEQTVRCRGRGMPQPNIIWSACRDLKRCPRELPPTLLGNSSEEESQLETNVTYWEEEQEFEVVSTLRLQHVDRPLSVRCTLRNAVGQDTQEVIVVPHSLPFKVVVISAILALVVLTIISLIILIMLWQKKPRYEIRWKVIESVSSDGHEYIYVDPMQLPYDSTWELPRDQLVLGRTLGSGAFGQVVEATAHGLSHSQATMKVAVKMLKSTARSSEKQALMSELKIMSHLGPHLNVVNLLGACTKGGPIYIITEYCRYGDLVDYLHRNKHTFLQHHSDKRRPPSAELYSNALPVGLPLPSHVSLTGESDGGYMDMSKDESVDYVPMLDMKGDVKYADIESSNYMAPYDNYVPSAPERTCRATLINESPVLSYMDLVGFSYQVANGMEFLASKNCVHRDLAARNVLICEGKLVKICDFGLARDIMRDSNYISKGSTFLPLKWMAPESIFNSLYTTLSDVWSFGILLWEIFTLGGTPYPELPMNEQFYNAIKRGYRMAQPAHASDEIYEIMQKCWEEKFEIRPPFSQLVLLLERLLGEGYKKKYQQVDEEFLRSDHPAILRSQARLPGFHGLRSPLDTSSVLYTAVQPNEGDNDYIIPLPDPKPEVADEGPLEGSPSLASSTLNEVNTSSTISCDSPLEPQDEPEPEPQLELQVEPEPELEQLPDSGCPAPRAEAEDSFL

Turning to `Oc1ccc(-c2cc3cccnc3[nH]2)cc1` [compound 1, 4-(1H-pyrrolo[2,3-b]pyridin-2-yl)phenol], the IC50 result on KIT, on JAK2, against DRAK2, against AURKC, on PDGFR-β and against ABL1 was “All kinases tested showed inhibition in the µM range” in each case.
